Measured values: US20070105892A1, “Amidino compounds as cysteine protease inhibitors” (AXYS Pharmaceuticals, Inc., priority 2003, published 2007)

melting point: 202 to 204 °C
Structure (SMILES): CCc1noc(C(=O)[C@H](CC)NC(=O)[C@H](CC2(C)CCCC2)NC2=NS(=O)(=O)c3ccccc32)n1 [Example 1]
